Assay results reported in patent US11442057B2, “Method for screening anticancer agent inhibiting binding of AIMP2-DX2 and HSP70” (MEDICINAL BIOCONVERGENCE RESEARCH CENTER, priority 2016, dated 2022).

Legend:
H460 cells xenograft = assay: H460 xenograft in Balb/c nude mice; type: in vivo
Procedure: After the end of the experiment, the tumors were separated and weighed. The body weight and tumor size of the experimental animals were measured twice a week.

A549 (Lung cancer cells) = assay: MTT assay of cell activity in A549 lung cancer cells; type: cell-based; details: 2.5, 5, 10, 20, 40 uM
[1] = system: WI-26 (Normal lung cells); assay: MTT assay of cell activity in WI-26 normal lung cells; details: 2.5, 5, 10, 20, 40 uM
[2] = system: 293T cells overexpressing Strep-AIMP2-DX2; assay: MTT assay of cell growth by AIMP2-DX2 in 293T cells overexpressing Strep-AIMP2-DX2; type: cell-based; details: inhibitors 12 hours or si-HSP70
Procedure: The HSP70 inhibitors Pifithrin-u (PES), and VER155008 (VER) and the HSP90 inhibitors Geldanamycin (Gel) and PUH71(Pu) were treated on 293T cells overexpressing Strep-AIMP2-DX2 and 293T cells not over-expressing, respectively for 12 hours, and MTT (Amresco) assay was performed. Each experiment was performed three times independently. Strep-AIMP2-DX2 was overexpressed in 293T cells, in which HSP70 expression was reduced using HSP70-specific si-RNA (si-HSP70), and MTT assay was performed. Each experiment was performed three times independently.

AIMP2-DX2 protein = assay: Western blot of AIMP2-DX2 protein expression level in H460 cells; type: cell-based, human; details: HSP70 or HSP90 inhibitor treatment

SMILES | growth of cancer cells (tumor volume) (H460 cells xenograft; 50 mg/kg, 5 times a week, 10 times in total, compared with Taxol 15 mpk) | tumor weight (H460 cells xenograft; 50 mg/kg, tumors separated and weighed at end of experiment) | body weight of mice (H460 cells xenograft; during the course of the experiment) | effect on lung cancer cell A549 (cell activity, MTT) (A549 (Lung cancer cells)) | effect on normal lung cell WI-26 (cell activity, MTT) [1] | increase in cell growth by AIMP2-DX2 [2] | expression level of AIMP2-DX2 protein after inhibitor treatment (AIMP2-DX2 protein)
Cc1ccc(S(=O)(=O)N[C@@H](Cc2c[nH]c3ccccc23)C(=O)Nc2ccc(N3CCOCC3)cc2)cc1 [BC-DXI-495] | inhibited to a degree similar to that of the control group Taxol | tumor suppressive effect was also confirmed in the tumor weight | no effect on the body weight | only lung cancer cells induce apoptosis | without any effect on normal cells | – | –
NS(=O)(=O)C#Cc1ccccc1 [PES, Pifithrin-u] | – | – | – | – | – | No increase in cell growth by AIMP2-DX2 was observed | decreased
CC(C)NCCCn1c(Sc2cc3c(cc2I)OCO3)nc2c(N)ncnc21 [PU, PUH71] | – | – | – | – | – | – | not affected
N#Cc1ccc(COC[C@H]2O[C@@H](n3c(NCc4ccc(Cl)c(Cl)c4)nc4c(N)ncnc43)[C@H](O)[C@@H]2O)cc1 [VER, VER155008] | – | – | – | – | – | No increase in cell growth by AIMP2-DX2 was observed | decreased
